This note sets out measurements from patent publication US11369618B2, “Compounds, compositions and methods for prevention and/or treatment of cancer” (THE TRUSTEES OF THE UNIVERSITY OF PENNSYLVANIA, priority 2016, dated 2022).

The test system of experiment [1] is Mouse (B16) and human (WM46) melanoma cell lines. Nature of the experiment: tumor formation in mice from melanoma cells pretreated in vitro. It is filed as in vivo. Particulars: melanoma cells pretreated in vitro, equal numbers injected into mice. How it is done:
FIG. 11A: Long-term melanin assay in which normal human melanocytes were transiently treated with progesterone (P4), or estrogen (E2). Subsets of these groups (Red) were treated with an additional transient pulse of P4 at Day 27. Error bars equal the standard deviation of the samples. FIG. 11B: Western blot of melanocyte differentiation markers after a transient, 4-day treatment with either vehicle or estrogen, followed by an 8 day withdraw period. FIG. 11C: Experimental timeline of estrogen or GPER agonist (G-1) pre-treatment of mouse and human melanoma cells, n=5 per group. FIG. 11D: Relative tumor weights of mouse and human melanomas pre-treated with estrogen, * denotes significance by the Mann-Whitney test. FIG. 11E: Relative tumor weights of mouse and human melanomas pre-treated with G-1, * denotes significance by the Mann-Whitney test.
Mouse (B16) and human (WM46) cell lines were pretreated with estrogen, G-1, or vehicle in vitro for one week then injected in equal numbers in to the left (vehicle-treated) or right (E2-treated) flank of mice, inducing tumor formation (N=5 mice per group) (FIG. 5). 14-16 days later, mice were imaged and tumors were harvested and weighed.
To test whether transient GPER signaling induces a persistent differentiation state in melanoma cells that affects subsequent tumor growth in vivo, melanoma cells were treated with estrogen, G-1, or vehicle in vitro, and subsequently injected equal numbers of treated cells into host mice (FIG. 11C).

In the next experiment the test system is NSCLC line LLC1. Nature of the experiment: proliferation assay of LLC1 treated with G-1. The class given is cell-based. The settings on record: LLC1, 500 nM, 6 days. How it is done: FIGS. 18A-18G illustrate the finding that GPER signaling reduces NSCLC cell proliferation in vitro and in vivo and has combinatorial effects with αPD-1 immunotherapy. FIG. 18A: Western blot for pCREB of LLC1 cells treated with 500 nM G-1 for 30 minutes. FIG. 18B: Proliferation assay of LLC1 treated with 500 nM G-1 for 6 days. FIG. 18C: Western blot for c-Myc of LLC1 cells treated with 500 nM G-1 for 6 days. FIG. 18D: Western blot for c-Myc of LLC1 cells treated with 500 nM G-1 over a time-course. […] FIG. 18F: Tumor volumes over time of LLC1 tumor bearing mice treated with vehicle or G-1, as well as αPD-1 antibody or isotype antibody control (2A3). FIG. 18G: Survival curve of mice treated with vehicle or G-1, as well as αPD-1 antibody or isotype antibody control (2A3).

Experiment [2] relates to mouse melanoma cell line B16F10. Nature of the experiment: in vivo treatment with G-1 of B16F10 melanoma (FIG. 6). The settings on record: B16F10, FIG. 6.
A further experiment concerns B16F10 melanoma cells. As to the kind of experiment: melanoma cells treated with G-1, HDACi, or in combination (Western blot, B16F10 proliferation assay). The class given is cell-based. The text has this: FIG. 16B: Western blot of p-RB, c-Myc, and H3K56ac in melanoma cells after treatment with G-1, HDACi, or in combination. FIG. 16C: Proliferation assay of B16F10 melanoma cells after treatment with G-1, HDACi, or in combination.
Histone acetyl marks are removed by several histone deacetylases (HDACs), which are aberrantly regulated in many cancers. Although HDAC inhibitors are approved as anticancer agents for cutaneous lymphoma, myeloma, and […], their utility in melanoma is unclear. […] HDAC efficacy may have been limited by the fact that trials were conducted without a differentiation driver to promote formation of acetylation marks on histones or other critical oncoproteins (such as c-Myc) that would then be stabilized by the HDACi. Without wishing to be limited by any theory, the anticancer effects of HDAC inhibitors can be potentiated by combination drug regimens that also promote histone acetylation at functionally critical sites. HDACi and GPER agonists independently promote melanoma cell differentiation, and also cooperate to potentiate the activity of each other (FIGS. 16B-16C).
In general terms: A western blot detects proteins with antibodies after separation by electrophoresis.

For a further experiment, the system named is PDAC cell lines. Nature of the experiment: proliferation assay of PDAC cell lines treated with G-1. It is filed as cell-based. The settings on record: 500 nM over 5 days.
Experiment [3] concerns pCREB and c-Myc in NSCLC line TC-1. As to the kind of experiment: Western blot of TC-1 cells treated with G-1. It is filed as cell-based. Particulars: TC-1, 500 nM, 1 hour.
In experiment [4] the test system is pRB, c-myc and GPER in WM46 melanoma cells. Nature of the experiment: Western blot of WM46 melanoma cells treated with increasing doses of G-1. The class given is cell-based, human. The settings on record: WM46, increasing concentrations.
Experiment [5] concerns Melanoma cells engineered to maintain c-Myc protein. Nature of the experiment: c-Myc-transduced WM46 melanoma cells treated with G-1. The settings on record: c-Myc-transduced WM46, 16 hours. The class given is cell-based, human. How it is done: FIG. 12 illustrates the finding that GPER signaling results in loss of c-Myc in melanoma. Panels A-C: Western blots of heMel (Panel A), WM46 (Panel B), and B16F10 (Panel C) melanoma transiently treated with E2 for 3 days, followed by 4 day withdraw. Panel D: Western blot of WM46 cells treated with a specific GPER agonist (G-1) for 16 hours. Panel E: Western blot of luciferase- or c-Myc-transduced WM46 cells treated with G-1 for 16 hours. Panel F: Western blot of WM46 cells treated with G-1 across a time course. Panel G: Western blot of WM46 cells treated with G-1, 100 μM PKA inhibitor Rp-8-Br-cAMPS (PKAi), or both for 1 hour. Panel H: Western blot of WM46 cells treated with G-1, […] proteasome inhibitor (MG132), or both for 1 hour. Panel I: Western blot of WM46 cells treated with 10 μg/ml cyclohexamide (CHX) with and without G-1.
Furthermore, GPER signaling induced a relative growth arrest, associated with hypophosphorylation of Rb in both mouse and human melanoma cells (FIG. 12, Panel D).

Molecules are shown by their SMILES. “Also recorded” adds a separate entry of the source.

Consider `CC(=O)c1ccc2c(c1)[C@@H]1C=CC[C@@H]1[C@H](c1cc3c(cc1Br)OCO3)N2` (relative stereo) [Compound G-1, rel-1-[4-(6-bromo-1,3-benzodioxol-5-yl)-3aR,4S,5,9bS-tetrahydro-3H-cyclopenta[c]quinolin-8-yl]-ethanone], for which the “tumor growth / tumor size from pretreated cells” value in experiment [1] is reported as “formed significantly smaller tumors; also recorded: markedly reduced subsequent tumor size”. Also, the proliferation result in the experiment with NSCLC line LLC1 is given as “decreased proliferation”. The “tumor growth in vivo” value in experiment [2] is reported as “inhibited tumor growth in vivo; also recorded: inhibits mouse melanoma cell line B16F10 growth in vivo”. Besides, the “combined effect of G-1 and HDACi in melanoma cells” value with B16F10 melanoma cells was “synergizes with HDAC inhibitors”. For the same compound, the proliferation rates entry in the experiment on PDAC cell lines is listed as “inhibited”. Moreover, the “pCREB and c-Myc signaling effects” value in experiment [3] is recorded as “the same signaling effects also occur”. In experiment [4], the GPER expression entry is reported as “elevation”, the c-myc levels entry is given as “reduction” and the pRB levels result is given as “reduction”. In experiment [5], the “response of cells engineered to maintain c-Myc protein” value is “resistant”.
